System: K98450-129-R-PDC multicell spheroids, viability
Test: Anticancer human tumor K98450-129-R-PDC patient-derived colon adenocarcinoma cell line growth inhibition [PI3K]
Conditions: for IC50: curve of first compound; for viability, T/C: stronger effect = lower value
In short: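 Stroma-containing spheroids: tumor line, pooled-donor HUVEC, hMSC. Treatments: targeted agents with PI3K inhibitors. Dosing: clinically relevant, half-log spacing, 10 microM ceiling without known Cmax. Read-out: cell viability.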

[1] = second compound 0.0316 µM, first compound 0.0316 µM
[2] = second compound 0.0316 µM, first compound 0.1 µM
[3] = second compound 0.0316 µM, first compound 0.316 µM
[4] = second compound 0.0316 µM, first compound 1 µM
[5] = second compound 0.0316 µM, first compound 3.16 µM
[6] = second compound 0.0316 µM, first compound 10 µM
[7] = second compound 0.1 µM, first compound 0.0316 µM
[8] = second compound 0.1 µM, first compound 0.1 µM
[9] = second compound 0.1 µM, first compound 0.316 µM
[10] = second compound 0.1 µM, first compound 1 µM
[11] = second compound 0.1 µM, first compound 3.16 µM
[12] = second compound 0.1 µM, first compound 10 µM
[13] = second compound 0.316 µM, first compound 0.0316 µM
[14] = second compound 0.316 µM, first compound 0.1 µM
[15] = second compound 0.316 µM, first compound 0.316 µM
[16] = second compound 0.316 µM, first compound 1 µM
[17] = second compound 0.316 µM, first compound 3.16 µM
[18] = second compound 0.316 µM, first compound 10 µM
[19] = second compound 1 µM, first compound 0.0316 µM
[20] = second compound 1 µM, first compound 0.1 µM
[21] = second compound 1 µM, first compound 0.316 µM
[22] = second compound 1 µM, first compound 1 µM
[23] = second compound 1 µM, first compound 3.16 µM
[24] = second compound 1 µM, first compound 10 µM
[25] = second compound 3.16 µM, first compound 0.0316 µM
[26] = second compound 3.16 µM, first compound 0.1 µM
[27] = second compound 3.16 µM, first compound 0.316 µM
[28] = second compound 3.16 µM, first compound 1 µM
[29] = second compound 3.16 µM, first compound 3.16 µM
[30] = second compound 3.16 µM, first compound 10 µM
[31] = second compound 10 µM, first compound 0.0316 µM
[32] = second compound 10 µM, first compound 0.1 µM
[33] = second compound 10 µM, first compound 0.316 µM
[34] = second compound 10 µM, first compound 1 µM
[35] = second compound 10 µM, first compound 3.16 µM
[36] = second compound 10 µM, first compound 10 µM
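Further: spheroids exposed to agents for seven days before read-out.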

Q: Which results are given for `Cn1ncc(Cl)c1-c1cc(C(=O)NC(CN)Cc2cccc(F)c2)sc1Cl` (centres undefined) + CC(Nc1ncnc2nc[nH]c12)c1cc2cccc(Cl)c2c(=O)n1-c1ccccc1?
A: IC50 (second compound 0.0316 µM): > 10 µM; IC50 (second compound 0.1 µM): > 10 µM; IC50 (second compound 0.316 µM): > 10 µM; IC50 (second compound 1 µM): > 10 µM; IC50 (second compound 3.16 µM): 9.63 µM; IC50 (second compound 10 µM): 8.5 µM; viability, T/C [1]: 88.4%; viability, T/C [2]: 105%; viability, T/C [3]: 102%; viability, T/C [4]: 93.8%; viability, T/C [5]: 98.1%; viability, T/C [6]: 56.9%; viability, T/C [7]: 107%; viability, T/C [8]: 85%; viability, T/C [9]: 96%; viability, T/C [10]: 92.6%; viability, T/C [11]: 98.1%; viability, T/C [12]: 59.8%; viability, T/C [13]: 110%; viability, T/C [14]: 106%; viability, T/C [15]: 92.4%; viability, T/C [16]: 101%; viability, T/C [17]: 99%; viability, T/C [18]: 61.5%; viability, T/C [19]: 95.7%; viability, T/C [20]: 110%; viability, T/C [21]: 101%; viability, T/C [22]: 80.8%; viability, T/C [23]: 96.6%; viability, T/C [24]: 61.2%; viability, T/C [25]: 87.3%; viability, T/C [26]: 94.5%; viability, T/C [27]: 106%; viability, T/C [28]: 96.9%; viability, T/C [29]: 97%; viability, T/C [30]: 48.4%; viability, T/C [31]: 85.1%; viability, T/C [32]: 86.1%; viability, T/C [33]: 87%; viability, T/C [34]: 94.9%; viability, T/C [35]: 89.8%; viability, T/C [36]: 43.7%

Q: How did the IC50 (second compound 0.0316 µM) turn out when `Cn1nccc1Nc1nccc(-c2ccn(C(CO)c3ccc(Cl)c(F)c3)c(=O)c2)n1` (centres undefined) + CC(Nc1ncnc2nc[nH]c12)c1cc2cccc(Cl)c2c(=O)n1-c1ccccc1 was run?
A: > 10 µM

Q: And the IC50 (second compound 0.1 µM)?
A: > 10 µM

Q: And the IC50 (second compound 0.316 µM)?
A: > 10 µM

Q: And the IC50 (second compound 1 µM)?
A: > 10 µM

Q: And the IC50 (second compound 3.16 µM)?
A: > 10 µM

Q: And the IC50 (second compound 10 µM)?
A: > 10 µM

Q: What about the viability, T/C [1] of the same compound?
A: 110%

Q: And the viability, T/C [2]?
A: 102%

Q: What about the viability, T/C [3] of the same compound?
A: 103%

Q: And the viability, T/C [4]?
A: 94.5%

Q: What about the viability, T/C [5] of the same compound?
A: 88.9%

Q: And the viability, T/C [6]?
A: 85.8%

Q: What about the viability, T/C [7] of the same compound?
A: 106%

Q: And the viability, T/C [8]?
A: 100%

Q: What about the viability, T/C [9] of the same compound?
A: 91.3%

Q: And the viability, T/C [10]?
A: 93.5%

Q: And the viability, T/C [11]?
A: 94.6%

Q: And the viability, T/C [12]?
A: 87%

Q: What about the viability, T/C [13] of the same compound?
A: 94.5%

Q: And the viability, T/C [14]?
A: 115%

Q: And the viability, T/C [15]?
A: 91.6%

Q: And the viability, T/C [16]?
A: 92.7%

Q: What about the viability, T/C [17] of the same compound?
A: 96.6%

Q: What about the viability, T/C [18] of the same compound?
A: 56.8%

Q: What about the viability, T/C [19] of the same compound?
A: 89.5%

Q: What about the viability, T/C [20] of the same compound?
A: 103%

Q: What about the viability, T/C [21] of the same compound?
A: 94.6%

Q: What about the viability, T/C [22] of the same compound?
A: 85.4%

Q: What about the viability, T/C [23] of the same compound?
A: 94%

Q: And the viability, T/C [24]?
A: 81.4%

Q: What about the viability, T/C [25] of the same compound?
A: 79.2%

Q: And the viability, T/C [26]?
A: 86.2%

Q: What about the viability, T/C [27] of the same compound?
A: 95%

Q: And the viability, T/C [28]?
A: 93.8%

Q: What about the viability, T/C [29] of the same compound?
A: 106%

Q: What about the viability, T/C [30] of the same compound?
A: 84.6%

Q: What about the viability, T/C [31] of the same compound?
A: 90%

Q: What about the viability, T/C [32] of the same compound?
A: 80%

Q: And the viability, T/C [33]?
A: 78.9%

Q: What about the viability, T/C [34] of the same compound?
A: 87.2%

Q: What about the viability, T/C [35] of the same compound?
A: 80.7%

Q: And the viability, T/C [36]?
A: 66.3%

Reference: PubChem BioAssay AID1963961 (Molecular Pharmacology Branch, DTP, NCI, 2024)
